For the assay, the target named is hENO1 (Homo sapiens, UniProt P06733). Kind of assay: isothermal titration calorimetry. It counts as binding. The following applies: stoichiometry 1.4-1.6 molecules of 1 per hENO1. A general note: In ITC the heat of successive injections is recorded.
hENO1, sequence (P06733 2-434): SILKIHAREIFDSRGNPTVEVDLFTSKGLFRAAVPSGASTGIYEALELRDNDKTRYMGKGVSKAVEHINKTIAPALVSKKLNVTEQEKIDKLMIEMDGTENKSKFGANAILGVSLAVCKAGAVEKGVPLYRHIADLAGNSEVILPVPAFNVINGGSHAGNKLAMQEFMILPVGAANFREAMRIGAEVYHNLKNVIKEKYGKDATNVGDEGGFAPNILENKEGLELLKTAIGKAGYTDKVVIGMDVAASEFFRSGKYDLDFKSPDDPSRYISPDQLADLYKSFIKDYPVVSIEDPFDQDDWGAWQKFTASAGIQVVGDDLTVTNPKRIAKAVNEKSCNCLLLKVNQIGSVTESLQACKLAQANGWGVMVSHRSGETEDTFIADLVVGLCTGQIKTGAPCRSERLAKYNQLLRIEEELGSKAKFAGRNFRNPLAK

`O=C1c2c(cc(O)c([C@@H]3CCc4cc(Cl)c(Cl)n43)c2O)-c2cc(Cl)c(Cl)n21` [compound 1, (-)-chlorizidine A] gave a Kd of 1900 ± 900 nM.

Broadly, the Kd is the concentration at which binding is half-saturated. A high value points to weaker binding.
